Data: patent publication US8629173B2, “Solid forms comprising (+)-2-[1-(3-ethoxy-4-methoxyphenyl)-2-methylsulfonylethyl]-4-acetylaminoisoindoline-1,3-dione, compositions thereof, and uses thereof” (Celgene Corporation, priority 2002, dated 2014)

System: moderate to severe plaque-type psoriasis
Assay: Phase 2 randomized placebo-controlled study in moderate-to-severe psoriasis
Assay type: in vivo, human
Method: This phase 2, multicenter, randomized, double-blind, placebo-controlled, parallel-group, dose-comparison study evaluated the efficacy and safety of Compound A in subjects with moderate to severe plaque-type psoriasis who were candidates for systemic therapy. This study included a 12-week treatment phase followed by a 4-week observational follow-up phase. A total of 260 subjects were randomized to receive Compound A 20 mg BID, Compound A 20 mg QD, or placebo for 12 weeks. The primary endpoint for this study was the proportion of subjects treated with Compound A who achieved a 75% reduction in Psoriasis Area and Severity Index score (“PASI-75”) at week 12/last treatment in reference to the baseline visit. Last treatment is defined as the last PASI assessment completed during the 12-week treatment phase.

[1] = 20 mg BID, week 12/last treatment

CCOc1cc(C(CS(C)(=O)=O)N2C(=O)c3cccc(NC(C)=O)c3C2=O)ccc1OC (single isomer, unassigned; (+)) [Compound A, (+)-2-[1-(3-ethoxy-4-methoxyphenyl)-2-methylsulfonylethyl]-4-acetylaminoisoindoline-1,3-dione]
psoriasis flare during the observational follow-up period (20 mg BID group, 4-week follow-up): No subjects | study drug-related serious adverse events (20 mg BID or 20 mg QD, 12 weeks): No study drug-related serious adverse events | mean decrease in PASI from baseline [1]: 52% | proportion of subjects achieving PASI-50 [1]: 57% | proportion of subjects achieving PASI-90 [1]: 14% | proportion of subjects achieving PASI-75 (20 mg BID, week 12/last treatment, P=0.023 vs placebo): 24% | tolerability and safety (12 weeks of treatment): well tolerated and safe
